Test results as given in patent US9242943B2, “1,4 oxazines as BACE1 and/or BACE2 inhibitors” (SIENA BIOTECH S.P.A., priority 2011, dated 2016).

How the values were obtained:
[1] = molecular target: BACE1 (Homo sapiens (Human), UniProt P56817); assay: Cellular Aβ-lowering assay (Aβ40 ELISA, HEK293 cells expressing human APP695); format: cell-based; settings: HEK293 cells stably transfected with human APP695; 18-20 hrs incubation; Aβ40 in supernatant; read-out: BACE1 cell act. Aβ40 IC50
Procedure: Cellular Aβ-Lowering Assay:
Human HEK293 cells which are stably transfected with a vector expressing a cDNA of the human APP wt gene (APP695) were used to assess the potency of the compounds in a cellular assay. The cells were seeded in 96-well microtiter plates in cell culture medium (Iscove, plus 10% (v/v) fetal bovine serum, glutamine, penicillin/streptomycin) to about 80% confluence and the compounds were added at a 10× concentration in 1/10 volume of medium without FCS containing 8% DMSO (final concentration of DMSO was kept at 0.8% v/v). After 18-20 hrs incubation at 37° C. and 5% CO2 in a humidified incubator the culture supernatant was harvested for the determination of […] concentrations. 96well ELISA plates (e.g., Nunc MaxiSorb) were coated with monoclonal antibody which specifically recognize the C-terminal end of […] (Brockhaus et al., NeuroReport 9, 1481-1486; 1998). After blocking of non-specific binding sites with e.g. 1% BSA and washing, the culture supernatants were added in suitable dilutions together with a horseradish peroxidase-coupled Aβ detection antibody (e.g., antibody 4G8, Senetek, Maryland Heights, Mo.) and incubated for 5 to 7 hrs. Subsequently the wells of the microtiter plate were washed extensively with Tris-buffered saline containing 0.05% Tween 20 and the assay was developed with tetramethylbenzidine/H2O2 in citric acid buffer. After stopping the reaction with one volume 1 N H2SO4 the reaction was measured in an ELISA reader at 450 nm wavelength. The concentrations of Aβ in the culture supernatants were calculated from a standard curve obtained with known amounts of pure Aβ peptide.

[2] = molecular target: BACE2 (Rattus norvegicus (Rat), UniProt Q6IE75); assay: Assay for BACE inhibition by measuring cellular TMEM27 cleavage (INS-TMEM27 cells, ELISA); format: cell-based; settings: INS-TMEM27 (INS1e-derived) cells; shed TMEM27 in supernatant; read-out: BACE2 cell act. IC50
Description: Assay for BACE Inhibition by Measuring Cellular TMEM27 Cleavage:
The assay uses the principle of inhibition of human TMEM27 cleavage by endogenous cellular BACE2 in the Ins1e rat cell line and shedding from the cell surface into the culture medium, followed by detection in an ELISA assay. Inhibition of BACE2 prevents the cleavage and shedding in a dose-dependent manner
The stable cell line “INS-TMEM27” represents an INS1e-derived cell line with inducible expression (using the TetOn system) of full-length hTMEM27 in a doxycycline-dependent manner. The cells are cultured throughout the experiment in RPMI1640 +Glutamax (Invitrogen) Penicillin/Streptomycin, 10% Fetal bovine serum, […], […], 100 micrograms/ml G418 and 100 microgram/ml hygromycin and are grown inadherent culture at 37° C. in a standard CO2 cell culture incubator.
INS-TMEM27 cells are seeded in 96-well plates. After 2 days in culture, BACE2 inhibitor is added in a range of concentrations as required by the assay and after a further two hours, doxycycline is added to a final concentration of 500 ng/ml. The cells are incubated for a further 46 hours and the supernatant harvested for detection of shed TMEM27.
An ELISA assay (using a pair of mouse anti-human-TMEM27 antibodies, raised against the extracellular domain of TMEM27) is used for detection of TMEM27 in the culture medium. An EC50 for BACE2 inhibition is calculated using the ELISA readout for each inhibitor concentration with standard curve-fitting software such as XLFit for the Excel spreadsheet program.

Sequence of BACE1 (P56817 46-501): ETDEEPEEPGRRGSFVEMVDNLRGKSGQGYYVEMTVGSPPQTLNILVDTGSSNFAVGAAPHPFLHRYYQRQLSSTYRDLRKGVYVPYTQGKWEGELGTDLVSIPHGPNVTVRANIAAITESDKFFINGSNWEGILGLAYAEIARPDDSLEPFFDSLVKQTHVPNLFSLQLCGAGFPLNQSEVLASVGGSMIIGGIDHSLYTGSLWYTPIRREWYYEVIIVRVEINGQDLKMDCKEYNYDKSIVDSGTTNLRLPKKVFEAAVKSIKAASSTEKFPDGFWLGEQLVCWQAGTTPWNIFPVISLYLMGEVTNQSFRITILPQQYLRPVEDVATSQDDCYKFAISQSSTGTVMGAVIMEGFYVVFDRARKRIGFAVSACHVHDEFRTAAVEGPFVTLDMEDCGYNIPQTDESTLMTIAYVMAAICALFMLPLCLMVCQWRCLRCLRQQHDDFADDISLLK
Sequence of BACE2 (Q6IE75 63-514): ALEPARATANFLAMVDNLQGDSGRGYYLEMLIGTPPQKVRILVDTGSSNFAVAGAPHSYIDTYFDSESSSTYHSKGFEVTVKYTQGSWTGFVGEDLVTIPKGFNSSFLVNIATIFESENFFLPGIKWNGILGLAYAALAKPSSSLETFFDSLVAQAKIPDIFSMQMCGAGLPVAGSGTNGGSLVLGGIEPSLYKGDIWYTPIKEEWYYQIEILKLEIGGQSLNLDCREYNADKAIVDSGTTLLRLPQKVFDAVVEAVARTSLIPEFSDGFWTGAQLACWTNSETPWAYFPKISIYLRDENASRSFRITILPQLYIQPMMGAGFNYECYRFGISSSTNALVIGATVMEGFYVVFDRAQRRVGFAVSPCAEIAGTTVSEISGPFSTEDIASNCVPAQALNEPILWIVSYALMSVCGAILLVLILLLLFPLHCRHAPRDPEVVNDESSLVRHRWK

Molecule	IC50 [1]	IC50 [2]
C[C@@]1(c2cc(Nc3ccccc3OCC(F)(F)F)ccc2F)COCC(N)=N1 [Example 42, (R)-5-{2-Fluoro-5-[2-(2,2,2-trifluoro-ethoxy)-phenylamino]-phenyl}-5-methyl-5,6-dihydro-2H-[1,4]oxazin-3-ylamine]	5200 nM	–
C[C@@]1(c2cc(NC3CCc4cc(Cl)cnc43)ccc2F)COCC(N)=N1 (stereo partly drawn) [Example 40, [3-((R)-5-Amino-3-methyl-3,6-dihydro-2H-[1,4]oxazin-3-yl)-4-fluoro-phenyl]-(3-chloro-6,7-dihydro-5H-[1]pyrindin-7-yl)-amine]	320 nM	1100 nM
C[C@@]1(c2cc(Nc3cccc4cc(OCCF)cnc34)ccc2F)COCC(N)=N1 [Example 30, [3-((R)-5-Amino-3-methyl-3,6-dihydro-2H-[1,4]oxazin-3-yl)-4-fluoro-phenyl]-[3-(2-fluoro-ethoxy)-quinolin-8-yl]-amine]	4770 nM	–
CC(C)C(Nc1ccc(F)c([C@]2(C)COCC(N)=N2)c1)c1ccc(Cl)cn1 (stereo partly drawn) [Example 23, (R)-5-{5-[1-(5-Chloro-pyridin-2-yl)-2-methyl-propylamino]-2-fluoro-phenyl}-5-methyl-5,6-dihydro-2H-[1,4]oxazin-3-ylamine]	3710 nM	1660 nM
C[C@@]1(c2cc(NCC(F)(F)F)ccc2F)COCC(N)=N1 [Example 9, (R)-5-(2-fluoro-5-(2,2,2-trifluoroethylamino)phenyl)-5-methyl-5,6-dihydro-2H-1,4-oxazin-3-amine]	350 nM	–
C[C@@]1(c2cc(NC[C@H]3CCCO3)ccc2F)COCC(N)=N1 [Example 22, (R)-5-(2-fluoro-5-(((R)-tetrahydrofuran-2-yl)methylamino)phenyl)-5-methyl-5,6-dihydro-2H-1,4-oxazin-3-amine]	1110 nM	2430 nM
C[C@@]1(c2cc(Nc3ccccc3OCC(F)F)ccc2F)COCC(N)=N1 [Example 41, (R)-5-{5-[2-(2,2-Difluoro-ethoxy)-phenylamino]-2-fluoro-phenyl}-5-methyl-5,6-dihydro-2H-[1,4]oxazin-3-ylamine]	2140 nM	10 nM
C[C@@]1(c2cc(NCCC(F)(F)F)ccc2F)COCC(N)=N1 [Example 12, (R)-5-(2-fluoro-5-(3,3,3-trifluoropropylamino)phenyl)-5-methyl-5,6-dihydro-2H-1,4-oxazin-3-amine]	1090 nM	2900 nM
CC1(c2cccc(Nc3cccc4oc(C5CC5)nc34)c2)COCC(N)=N1 (stereo not drawn) [Example 46, [3-(5-Amino-3-methyl-3,6-dihydro-2H-[1,4]oxazin-3-yl)-phenyl]-(2-cyclopropyl-benzooxazol-4-yl)-amine]	–	300 nM
CC1(c2cccc(Nc3cccc4cc(Cl)cnc34)c2)COCC(N)=N1 (stereo not drawn) [Example 24, [3-(5-Amino-3-methyl-3,6-dihydro-2H-[1,4]oxazin-3-yl)-phenyl]-(3-chloro-quinolin-8-yl)-amine]	250 nM	18 nM
CSCCCNc1ccc(F)c([C@]2(C)COCC(N)=N2)c1 [Example 13, (R)-5-(2-fluoro-5-(3-(methylthio)propylamino)phenyl)-5-methyl-5,6-dihydro-2H-1,4-oxazin-3-amine]	310 nM	–
C[C@@]1(c2cc(NCC(F)F)ccc2F)COCC(N)=N1 [Example 10, (R)-5-[5-(2,2-Difluoro-ethylamino)-2-fluoro-phenyl]-5-methyl-5,6-dihydro-2H-[1,4]oxazin-3-ylamine]	410 nM	–
CC1(c2cccc(NC3CCc4cc(Cl)ccc43)c2)COCC(N)=N1 (stereo not drawn) [Example 39, 5-[3-(5-Chloro-indan-1-ylamino)-phenyl]-5-methyl-5,6-dihydro-2H-[1,4]oxazin-3-ylamine]	180 nM	–
COc1cnc2c(Nc3cccc(C4(C)COCC(N)=N4)c3)cccc2c1 (stereo not drawn) [Example 37, [3-(5-Amino-3-methyl-3,6-dihydro-2H-[1,4]oxazin-3-yl)-phenyl]-(3-methoxy-quinolin-8-yl)-amine]	–	120 nM
(R)-5-{2-Fluoro-5-[2-(2-fluoro-ethoxy)-phenylamino]-phenyl}-5-methyl-5,6-dihydro-2H-[1,4]oxazin-3-ylamine [Example 43]	3200 nM	–
C[C@@]1(c2cc(Nc3cc(F)cc4cc(Cl)cnc34)ccc2F)COCC(N)=N1 [Example 28, [3-((R)-5-Amino-3-methyl-3,6-dihydro-2H-[1,4]oxazin-3-yl)-4-fluoro-phenyl]-(3-chloro-6-fluoro-quinolin-8-yl)-amine]	44 nM	–
C[C@@]1(c2cc(N[C@H]3CCC[C@@H]3O)ccc2F)COCC(N)=N1 [Example 19, (1S,2S)-2-(3-((R)-5-amino-3-methyl-3,6-dihydro-2H-1,4-oxazin-3-yl)-4-fluorophenylamino)cyclopentanol]	1210 nM	3420 nM
CCCCNc1ccc(F)c([C@]2(C)COCC(N)=N2)c1 [Example 5, (R)-5-(5-Butylamino-2-fluoro-phenyl)-5-methyl-5,6-dihydro-2H-[1,4]oxazin-3-ylamine]	340 nM	–
C[C@@]1(c2cc(NC3CCOC3)ccc2F)COCC(N)=N1 (stereo partly drawn) [Example 18, (R)-5-[2-Fluoro-5-(tetrahydro-furan-3-ylamino)-phenyl]-5-methyl-5,6-dihydro-2H-[1,4]oxazin-3-ylamine]	320 nM	3390 nM
C[C@@]1(c2cc(Nc3cc(F)cc4cc(OCC5CC5)cnc34)ccc2F)COCC(N)=N1 [Example 31, [3-((R)-5-Amino-3-methyl-3,6-dihydro-2H-[1,4]oxazin-3-yl)-4-fluoro-phenyl]-(3-cyclopropylmethoxy-6-fluoro-quinolin-8-yl)-amine]	6900 nM	–
CC(C)CCNc1ccc(F)c([C@]2(C)COCC(N)=N2)c1 [Example 6, (R)-5-(2-fluoro-5-(isopentylamino)phenyl)-5-methyl-5,6-dihydro-2H-1,4-oxazin-3-amine]	1360 nM	605 nM
C[C@@]1(c2cc(Nc3cccc4cc(OCC(F)(F)F)cnc34)ccc2F)COCC(N)=N1 [Example 32, [3-((R)-5-Amino-3-methyl-3,6-dihydro-2H-[1,4]oxazin-3-yl)-4-fluoro-phenyl]-[3-(2,2,2-trifluoro-ethoxy)-quinolin-8-yl]-amine]	2360 nM	–
C[C@@]1(c2cc(NC3CCC3)ccc2F)COCC(N)=N1 [Example 14, (R)-5-(5-Cyclobutylamino-2-fluoro-phenyl)-5-methyl-5,6-dihydro-2H-[1,4]oxazin-3-ylamine]	260 nM	1170 nM
C[C@]1(c2cc(NC3CCc4cc(Cl)ccc43)ccc2F)COCC(N)=N1 (stereo partly drawn) [Example 35, (S)-5-[5-(5-Chloro-indan-1-ylamino)-2-fluoro-phenyl]-5-methyl-5,6-dihydro-2H-[1,4]oxazin-3-ylamine]	100 nM	732 nM
C[C@@]1(c2cc(NCc3nn(C(F)F)cc3Cl)ccc2F)COCC(N)=N1 [Example 45, (R)-5-{5-[(4-Chloro-1-difluoromethyl-1H-pyrazol-3-ylmethyl)-amino]-2-fluoro-phenyl}-5-methyl-5,6-dihydro-2H-[1,4]oxazin-3-ylamine]	17 nM	–
CC(C)C(C)Nc1ccc(F)c([C@]2(C)COCC(N)=N2)c1 (stereo partly drawn) [Example 8, (5R)-5-(2-fluoro-5-(3-methylbutan-2-ylamino)phenyl)-5-methyl-5,6-dihydro-2H-1,4-oxazin-3-amine]	2190 nM	–
CC1(c2cccc(Nc3ccccc3OC(F)F)c2)COCC(N)=N1 (stereo not drawn) [Example 44, 5-[3-(2-Difluoromethoxy-phenylamino)-phenyl]-5-methyl-5,6-dihydro-2H-[1,4]oxazin-3-ylamine]	890 nM	–
CC1(c2cccc(NCc3ccc(Cl)cc3)c2)COCC(N)=N1 (stereo not drawn) [Example 2, 5-[3-(4-Chloro-benzylamino)-phenyl]-5-methyl-5,6-dihydro-2H-[1,4]oxazin-3-ylamine]	450 nM	–
